Measurements as given in patent US20250073249A1, “STEROID COMPOUND, AND PREPARATION METHOD THEREFOR AND USE THEREOF” (SHANGHAI INSTITUTE OF MATERIA MEDICA, CHINESE ACADEMY OF …, priority 2022, published 2025).

Legend:
AR = biological target: T1, AR (Homo sapiens, UniProt P10275, T878A); assay: In vitro AR degradation activity test in LNCaP cells (ELISA, OD450); format: cell-based; conditions: for DC50: LNCaP cells, 24 hours
T1 construct: endogenous in cells; host or cells: LNCaP
T1 sequence (P10275 1-920 T878A): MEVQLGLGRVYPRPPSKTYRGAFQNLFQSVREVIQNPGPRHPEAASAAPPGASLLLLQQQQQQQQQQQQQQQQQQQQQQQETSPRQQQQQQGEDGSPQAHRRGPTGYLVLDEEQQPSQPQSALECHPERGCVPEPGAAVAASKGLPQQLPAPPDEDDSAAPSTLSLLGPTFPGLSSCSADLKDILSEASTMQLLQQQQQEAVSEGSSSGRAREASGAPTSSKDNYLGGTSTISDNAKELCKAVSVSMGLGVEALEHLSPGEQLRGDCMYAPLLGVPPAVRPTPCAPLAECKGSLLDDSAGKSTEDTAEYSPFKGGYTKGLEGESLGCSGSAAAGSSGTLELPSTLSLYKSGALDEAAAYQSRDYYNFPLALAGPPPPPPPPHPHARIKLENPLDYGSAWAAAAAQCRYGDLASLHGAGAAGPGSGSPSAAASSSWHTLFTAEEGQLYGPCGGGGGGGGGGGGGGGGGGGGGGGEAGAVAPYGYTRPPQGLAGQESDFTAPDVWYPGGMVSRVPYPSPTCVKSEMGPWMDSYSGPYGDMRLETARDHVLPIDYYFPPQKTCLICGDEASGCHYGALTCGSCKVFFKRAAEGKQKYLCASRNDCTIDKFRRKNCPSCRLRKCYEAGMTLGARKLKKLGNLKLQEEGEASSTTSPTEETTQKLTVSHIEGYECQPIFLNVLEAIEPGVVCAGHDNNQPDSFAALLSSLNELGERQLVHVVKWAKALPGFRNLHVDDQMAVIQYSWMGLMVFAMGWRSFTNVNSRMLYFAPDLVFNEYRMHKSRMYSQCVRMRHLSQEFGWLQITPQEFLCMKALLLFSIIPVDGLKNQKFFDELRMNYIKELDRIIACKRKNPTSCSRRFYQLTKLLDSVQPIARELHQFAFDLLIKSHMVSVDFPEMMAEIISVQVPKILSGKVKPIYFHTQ
Method: The cells were then digested with trypsin and counted using an automated cell counter. The cell suspension was diluted to the desired density in growth medium. The cell suspension was then seeded into 96-well plates at 100 μL per well, and the plates were incubated at 37° C. with 5% CO2 for 24 hours. The compounds were then diluted 200-fold to the final concentration with DMSO or 3-fold to the final concentration with culture medium. 50 μL of compound solution was transferred to the 96-well plate and incubated at 37° C. for 24 hours. After 24 hours of incubation, the cell plate was washed 3 times with DPBS, 100 μL of 1× lysis buffer was added to each well, and placed on ice for 30 minutes. The supernatant was collected. The protein in the cell lysate samples was quantified and then diluted to the required concentration. 100 μL of cell lysate sample was added to the appropriate wells, sealed with tape and pressed firmly on top of the wells, and the plate was incubated at 37° C. for 2 hours. The plate contents were then discarded, and washed 4 times with 1× wash buffer, 200 μL per well each time. 100 μL of reconstituted detection antibody was then added, the plate was sealed with tape and incubated at 37° C. for 1 hour. The aspiration/wash step was then repeated, 100 μL of reconstituted HRP-Linked secondary antibody was added to each well, the plate was sealed with tape and incubated at 37° C. for 30 minutes. The aspiration/wash step was then repeated, 100 μL of substrate solution was added to each well and incubated at 37° C. for 10 minutes, and finally 100 μL of stop solution was added to each well. The plate was gently tapped to ensure thorough mixing, and the OD450 nm was recorded.
Degradation rate (%)=(OD450_max−OD450_sample)/(OD450_max−OD450_min)×100,plotted using GraphPad Prism 5 software, and IC50 is calculated using SPSS software.

LNCaP cells = assay: In vitro LNCaP cell proliferation inhibition test (CellTiter-Glo); format: cell-based; conditions: for Maximum Inhibition (%) / IC50: 6 days; for IC50: Homo sapiens, read-out: Anti-proliferative activity IC50
Method: The cells were then digested with trypsin and counted using an automated cell counter to determine cell density. The cell suspension was diluted to the desired density in growth medium. Subsequently, 100 μL of the cell suspension was seeded into 96-well plates and incubated at 37° C. with 5% CO2 for 24 hours. 10 μL of drug solution (including 3-fold serial dilutions of compounds or DMSO) was added to each well, and the plates were incubated at 37° C. with 5% CO2 for 6 days. Prior to measurement, the assay plates were equilibrated to room temperature. 40 μL of CellTiter-Glo® reagent was added to each well. The plates were mixed on an orbital shaker for 2 minutes to induce cell lysis. After incubation at room temperature for 60 minutes to stabilize the luminescence signal, the plates were read on an Envision plate reader.

[1] = In vivo pharmacokinetics in rats after oral gavage; conditions: male SD rats, PO 10 mg/kg
Method: Male SD rats were randomly divided into 6 groups, 3 rats per group. The rats were fasted but not water-deprived for 12-14 h one day before dosing. The test samples were then dissolved in a solvent of 5% DMSO+30% PEG400+65% (0.5% MC) and administered by gavage at 10 mg/kg. Food was provided 4 h after dosing. Blood samples (0.10 mL) were collected via the orbital sinus at 0, 15, 30 min, 1, 2, 4, 6, 8, and 24 h, with EDTA-K2 as anticoagulant. Blood samples were placed on ice after collection and centrifuged to separate plasma within 30 minutes (centrifugation conditions: 5000 rpm, 10 minutes, 4° C.). 50.0 μL of plasma sample (taken from −80° C. freezer, thawed naturally at room temperature and vortexed for 30 seconds) was added to a 1.5 mL centrifuge tube, followed by addition of 500 μL internal standard solution (methanol (TEDIA, HPLC grade), acetonitrile (TEDIA, HPLC grade), formic acid (FA, ACROS ORGANICS, HPLC grade), water was laboratory-made ultrapure water (100.0 ng·mL−1)). The mixture was vortexed for 60 seconds and centrifuged for 3 minutes (centrifugal force 12000 rpm). 100 μL of the supernatant was transferred to a 96-well injection plate containing an equal volume of water, mixed by shaking, and analyzed by LC-MS/MS with an injection volume of 10 μL. The data acquisition and control system software was Analyst 1.5.1 software (Applied Biosystem). The chromatographic sample peaks were integrated automatically. The ratio of sample peak area to internal standard peak area was used as an indicator for regression with sample concentration.
The pharmacokinetic parameters of representative compounds of the present invention were tested in male SD rats after oral gavage administration at 10 mg/kg according to the above conventional method to examine the pharmacokinetic characteristics of the compounds of the present invention in rats.

SMILES | DC50 (AR) | Maximum Inhibition (%) (LNCaP cells) | IC50 (LNCaP cells) | other results
C[C@]12CC[C@H](NC(=O)c3ccncc3)CC1=CCC1C2CC[C@]2(C)C(n3cnc4ccccc43)=CCC12 (stereo partly drawn) [Compound 8, N-((3S,10R,13S)-17-(1H-benzo[d]imidazol-1-yl)-10,13-dimethyl-2,3,4,7,8,9,10,11,12,13,14,15-dodecahydro-1H-cyclopenta[a]phenanthren-3-yl)isonicotinamide] | 3760 nM | 104.5% | 763 nM | –
C[C@]12CC[C@H](NC(=O)c3ccncc3)CC1=CCC1C2CC[C@]2(C)C(c3cccnc3)=CCC12 (stereo partly drawn) [Compound 2, N-((3S,10R,13S)-10,13-dimethyl-17-(pyridin-3-yl)-2,3,4,7,8,9,10,11,12,13,14,15-dodecahydro-1H-cyclopenta[a]phenanthren-3-yl)isonicotinamide] | – | 93.50% | 851 nM | –
CC(C)c1cn(C2=CCC3C4CC=C5C[C@@H](NC(=O)c6ccncc6)CC[C@]5(C)C4CC[C@]23C)cn1 (stereo partly drawn) [Compound 20, N-((3S,10R,13S)-17-(4-isopropyl-1H-imidazol-1-yl)-10,13-dimethyl-2,3,4,7,8,9,10,11,12,13,14,15-dodecahydro-1H-cyclopenta[a]phenanthren-3-yl)isonicotinamide] | – | 94.04% | 734 nM | –
C[C@]12CC[C@H](NC(=O)c3ccnnc3)CC1=CCC1C2CC[C@]2(C)C(n3cnc(C(F)(F)F)c3)=CCC12 (stereo partly drawn) [Compound 22] | – | 104.1% | 819 nM | –
C[C@]12CC[C@H](NC(=O)c3cccnc3)CC1=CCC1C2CC[C@]2(C)C(c3cccnc3)=CCC12 (stereo partly drawn) [Compound 3, N-((3S,10R,13S)-10,13-dimethyl-17-(pyridin-3-yl)-2,3,4,7,8,9,10,11,12,13,14,15-dodecahydro-1H-cyclopenta[a]phenanthren-3-yl)nicotinamide] | 2870 nM | – | – | –
C[C@]12CC[C@H](NC(=O)c3ccnnc3)CC1=CCC1C2CC[C@]2(C)C(n3cnc(C#N)c3)=CCC12 (stereo partly drawn) [Compound 25] | – | 89.52% | 471 nM | –
Cc1cn(C2=CCC3C4CC=C5C[C@@H](NC(=O)c6cccnc6)CC[C@]5(C)C4CC[C@]23C)cn1 (stereo partly drawn) [Compound 12, N-((3S,10R,13S)-10,13-dimethyl-17-(4-methyl-1H-imidazol-1-yl)-2,3,4,7,8,9,10,11,12,13,14,15-dodecahydro-1H-cyclopenta[a]phenanthren-3-yl)nicotinamide] | 3580 nM | 102.9% | 933 nM | –
C[C@]12CC[C@H](NC(=O)c3ccnnc3)CC1=CCC1C2CC[C@]2(C)C(c3cncnc3)=CCC12 (stereo partly drawn) [Compound 10] | 4250 nM | 99.74% | 820 nM | –
CCc1cn(C2=CCC3C4CC=C5C[C@@H](NC(=O)c6ccncc6)CC[C@]5(C)C4CC[C@]23C)cn1 (stereo partly drawn) [Compound 18, N-((3S,10R,13S)-17-(4-ethyl-1H-imidazol-1-yl)-10,13-dimethyl-2,3,4,7,8,9,10,11,12,13,14,15-dodecahydro-1H-cyclopenta[a]phenanthren-3-yl)isonicotinamide] | 3210 nM | 98.53% | 356 nM | Anti-proliferative activity, fold improvement compared to abiraterone (LNCaP cells; ratio to abiraterone IC50): 7.9 fold
CCc1cn(C2=CCC3C4CC=C5C[C@@H](NC(=O)c6ccnnc6)CC[C@]5(C)C4CC[C@]23C)cn1 (stereo partly drawn) [Compound 19] | – | 97.68% | 427 nM | –
Cc1cn(C2=CCC3C4CC=C5C[C@@H](NC(=O)c6ccncc6F)CC[C@]5(C)C4CC[C@]23C)cn1 (stereo partly drawn) [Compound 15, N-((3S,10R,13S)-10,13-dimethyl-17-(4-methyl-1H-imidazol-1-yl)-2,3,4,7,8,9,10,11,12,13,14,15-dodecahydro-1H-cyclopenta[a]phenanthren-3-yl)-3-fluoroisonicotinamide] | – | 102.6% | 752 nM | –
C[C@]12CC[C@H](NC(=O)c3ccnnc3)CC1=CCC1C2CC[C@]2(C)C(n3cnc4ccccc43)=CCC12 (stereo partly drawn) [Compound 9] | – | 95.87% | 765 nM | –
C[C@]12CC[C@H](O)CC1=CC[C@@H]1[C@@H]2CC[C@]2(C)C(c3cccnc3)=CC[C@@H]12 [Abiraterone, abiraterone, reference compound] | – | 84.06% | 2800 nM | Kel [1]: 0.298 h⁻¹; MRTPO [1]: 4.60 h; AUC(0-inf) ([1]; rat, plasma): 198 ng·h/mL; AUC(0-t) ([1]; rat, plasma): 163 ng·h/mL; half-life ([1]; rat, plasma): 2.37 h; Cmax ([1]; rat, plasma, read-out: Cmax): 48.4 ng/mL; tmax ([1]; rat, plasma, read-out: tmax): 1.83 h
Cc1cn(C2=CCC3C4CC=C5C[C@@H](NC(=O)c6ccc(C#N)cc6)CC[C@]5(C)C4CC[C@]23C)cn1 (stereo partly drawn) [Compound 36, N-((3S,10R,13S)-17-(4-methyl-1H-imidazol-1-yl)-10,13-dimethyl-2,3,4,7,8,9,10,11,12,13,14,15-dodecahydro-1H-cyclopenta[a]phenanthren-3-yl)-4-cyanobenzamide] | 1370 nM | 99.38% | 643 nM | AR degradation activity, improvement compared to Galeterone (AR; ratio to Galeterone DC50): 7.6 times
COc1cn(C2=CCC3C4CC=C5C[C@@H](NC(=O)c6ccnnc6)CC[C@]5(C)C4CC[C@]23C)cn1 (stereo partly drawn) [Compound 24] | 3880 nM | 98.02% | 475 nM | Anti-tumor activity and efficacy compared to enzalutamide (LNCaP cells; in words): comparable anti-tumor activity but significantly superior anti-tumor efficacy compared to enzalutamide
